System: Staphylococcus aureus
Assay: Antibacterial activity against Staphylococcus aureus ATCC 25923 assessed as growth inhibition after 24 hrs by microdilution method
Format: functional, organism-based

| Compound | IC50 (Staphylococcus aureus, ATCC 25923, 24 h) [µM] | IC50 [µM] |
| --- | --- | --- |
| O=C(N[C@H](CO)[C@H](O)c1ccc([N+](=O)[O-])cc1)C(Cl)Cl [CHLORAMPHENICOL] | 0.43 |  |
| GENTAMICIN |  | 0.01 |

Reference: ChEMBL document CHEMBL3580584, “Antibacterial Balsacones J-M, Hydroxycinnamoylated Dihydrochalcones from Populus balsamifera Buds” (J Nat Prod, 2015)
